We go through 3 compounds from patent US8461184B2, “Sulphur containing pyrazole derivatives as selective cannabinoid CB1 receptor antagonists” (Solvay Pharmaceuticals B.V., priority 2006, dated 2013).

Like-named read-outs stand apart in the source and are kept apart here. Where only a bound is given, the exact number is not on record here.

Data set [1] deals with T1, human cannabinoid CB1 receptor (Homo sapiens, UniProt P21554).
T1 construct: expressed in transfected cells; host or cells: Chinese hamster ovary (CHO) cells, membrane preparation
T1 sequence (P21554 whole entry): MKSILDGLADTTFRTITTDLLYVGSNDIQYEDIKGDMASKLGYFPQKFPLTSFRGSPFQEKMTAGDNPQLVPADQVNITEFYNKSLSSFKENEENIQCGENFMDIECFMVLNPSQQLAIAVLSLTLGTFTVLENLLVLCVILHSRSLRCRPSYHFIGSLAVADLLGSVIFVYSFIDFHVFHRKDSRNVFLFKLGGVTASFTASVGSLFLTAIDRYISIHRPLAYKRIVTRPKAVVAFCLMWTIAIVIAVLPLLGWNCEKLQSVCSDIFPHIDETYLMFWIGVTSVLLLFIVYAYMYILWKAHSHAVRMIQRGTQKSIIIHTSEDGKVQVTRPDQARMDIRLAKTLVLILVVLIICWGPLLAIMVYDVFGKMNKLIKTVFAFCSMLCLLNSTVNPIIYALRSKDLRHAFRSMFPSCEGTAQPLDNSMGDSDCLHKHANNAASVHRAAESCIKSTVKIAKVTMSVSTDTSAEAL
Nature of the data set: In vitro affinity for human cannabinoid-CB1 receptors ([3H]CP-55,940 radioligand, CHO cell membranes). The data set is classed as binding. Particulars: for CB1/CB2 ratio: CB1/CB2 receptor selectivity ratio from hCB1 and hCB2 Ki; for Ki: human CB1 receptor in CHO cell membranes, [3H]CP-55,940, mean of at least three independent experiments, read-out: hCB1 Ki. The protocol:
In vitro affinity for human cannabinoid-CB1 receptors.
The affinity of the compounds of the invention for cannabinoid CB1 receptors can be determined using membrane preparations of Chinese hamster ovary (CHO) cells in which the human cannabinoid CB1 receptor is stably transfected in conjunction with [^3H]CP-55,940 as radioligand. After incubation of a freshly prepared cell membrane preparation with the [^3H]-ligand, with or without addition of compounds of the invention, separation of bound and free ligand is performed by filtration over glassfiber filters. Radioactivity on the filter is measured by liquid scintillation counting.

In data set [2] the target is T2, human cannabinoid CB2 receptor (Homo sapiens, UniProt P34972).
T2 construct: expressed in transfected cells; host or cells: Chinese hamster ovary (CHO) cells, membrane preparation
T2 sequence (P34972 whole entry): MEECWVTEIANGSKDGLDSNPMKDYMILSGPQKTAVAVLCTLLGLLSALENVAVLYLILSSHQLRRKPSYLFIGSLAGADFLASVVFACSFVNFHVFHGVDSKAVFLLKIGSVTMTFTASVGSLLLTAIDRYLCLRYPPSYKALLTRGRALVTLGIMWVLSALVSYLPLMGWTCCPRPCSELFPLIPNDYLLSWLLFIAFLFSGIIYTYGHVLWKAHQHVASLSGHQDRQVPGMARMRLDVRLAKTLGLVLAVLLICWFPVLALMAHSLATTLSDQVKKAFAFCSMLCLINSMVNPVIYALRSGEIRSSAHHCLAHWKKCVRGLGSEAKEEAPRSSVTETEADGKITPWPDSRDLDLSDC
Nature of the data set: In vitro affinity for human cannabinoid-CB2 receptors ([3H]CP-55,940 radioligand, CHO cell membranes). The format is binding. The settings on record: mean of at least three independent experiments, read-out: hCB2 Ki. The protocol:
In vitro affinity for human cannabinoid-CB2 receptors.
The affinity of the compounds of the invention for cannabinoid CB2 receptors can be determined using membrane preparations of Chinese hamster ovary (CHO) cells in which the human cannabinoid CB2 receptor is stably transfected in conjunction with [^3H]CP-55,940 as radioligand. After incubation of a freshly prepared cell membrane preparation with the [^3H]-ligand, with or without addition of compounds of the invention, separation of bound and free ligand is performed by filtration over glassfiber filters. Radioactivity on the filter was measured by liquid scintillation counting.

The target of data set [3] is T3, CB1 receptor (Rattus norvegicus, UniProt P20272).
T3 construct: from tissue; host or cells: whole animal: male normotensive rats (Harlan)
T3 sequence (P20272 whole entry): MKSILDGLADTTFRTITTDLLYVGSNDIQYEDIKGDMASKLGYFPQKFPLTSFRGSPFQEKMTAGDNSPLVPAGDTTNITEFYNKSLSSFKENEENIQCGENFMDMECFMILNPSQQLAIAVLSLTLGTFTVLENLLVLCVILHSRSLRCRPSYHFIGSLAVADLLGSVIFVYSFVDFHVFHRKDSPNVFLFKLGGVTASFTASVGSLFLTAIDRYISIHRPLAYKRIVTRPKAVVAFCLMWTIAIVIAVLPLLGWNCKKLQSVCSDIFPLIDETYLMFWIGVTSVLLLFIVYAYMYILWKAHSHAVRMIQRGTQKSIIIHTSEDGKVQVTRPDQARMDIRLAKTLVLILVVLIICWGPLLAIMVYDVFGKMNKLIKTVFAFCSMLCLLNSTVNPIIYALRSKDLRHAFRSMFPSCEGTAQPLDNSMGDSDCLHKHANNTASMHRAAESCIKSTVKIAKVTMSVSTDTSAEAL
Nature of the data set: CP-55,940 induced hypotension in the rat. The format is in vivo. The settings on record: read-out: Blood pressure (rat) ED50. The protocol:
Blood pressure was measured, via a cannula inserted into the left carotid artery, by means of a Spectramed DTX-plus pressure transducer (Spectramed B. V., Bilthoven, The Netherlands). […] Heart rate was derived from the pulsatile pressure signal. […] The injection volume was 10 ml/kg.

The mark [4] stands for this setting: p.o., antagonism of hypotension induced by CP-55,940 (0.1 mg/kg i.v.), anaesthetized male normotensive rats.

For the compound `CSc1c(C(=O)NN2CCCCC2)nn(-c2ccc(Cl)cc2Cl)c1-c1ccc(Cl)cc1` [Comp. 1, 5-(4-Chlorophenyl)-1-(2,4-dichlorophenyl)-4-methylsulfanyl-N-(piperidin-1-yl)-1H-pyrazole-3-carboxamide], the melting point is 172.4 to 174.5 °C. Also, in data set [1], the CB1/CB2 ratio turned out to be 67 and the Ki came to 0.01 µM. For the same compound, the Ki in data set [2] was determined as 0.668 µM. The ED50 in data set [3] was determined as 1.5 mg/kg.
Turning to `CSc1c(C(=O)NN2CCCC2)nn(-c2ccc(Cl)cc2Cl)c1-c1ccc(Cl)cc1` [Comp. 2, 5-(4-Chlorophenyl)-1-(2,4-dichlorophenyl)-4-methylsulfanyl-N-(pyrrolidin-1-yl)-1H-pyrazole-3-carboxamide], the CB1/CB2 ratio in data set [1] was over 34. The Ki in data set [1] was under 0.01 µM; in data set [2] it was 0.34 µM. Moreover, the ED50 in data set [3] (setting [4]) was determined as 1.9 mg/kg.
Taken in the same sequence, the figures for `CSc1c(C(=O)NN2CCCCCC2)nn(-c2ccc(Cl)cc2Cl)c1-c1ccc(Cl)cc1` [Comp. 3, 5-(4-Chlorophenyl)-1-(2,4-dichlorophenyl)-4-methylsulfanyl-N-(azepan-1-yl)-1H-pyrazole-3-carboxamide] were 25, 0.02 µM, 0.5 µM and 3.1 mg/kg.
